Broadly, the IC50 is the point on the concentration scale where inhibition reaches its midpoint. Broadly, the Cmax is the peak of the concentration-time curve. Usually half-life stands for the time in which the quantity being followed falls by half. As usually defined, the Ki is a dissociation constant, usually derived from enzyme kinetics or from competition with a known ligand. What is called Kb is the equilibrium dissociation constant of an antagonist, usually derived from a functional assay.

From ChEMBL document CHEMBL4699449, “Adenosine A Receptor Antagonists for Cancer Immunotherapy” (J Med Chem, 2020) come the findings set out here.

For data set [1], the species on record is Homo sapiens. The data set is described as follows: Selectivity ratio of Ki for human adenosine A3 receptor to Ki for human Adenosine 2A receptor.
The species entered for data set [2] is Homo sapiens. As to the kind of experiment: Selectivity ratio of Ki for human adenosine 2B receptor expressed in HEK293 cells to Ki for human adenosine 2A receptor expressed in HEK293 cells. The format is cell-based.
Data set [3] is filed under the species Homo sapiens. As to the kind of experiment: Selectivity ratio of Ki for human adenosine A1 receptor to Ki for human Adenosine 2A receptor.
Data set [4] addresses T1, Adenosine receptor A2a (Homo sapiens, UniProt P29274). As to the kind of experiment: Antagonist activity at human adenosine 2A receptor expressed in HEK293 cells assessed as reduction in NECA-induced cAMP level incubated for 15 mins by HTRF assay. The format is functional, cell-based.
A short description of data set [5]: Cmax in mouse at 1 mg/kg, iv measured up to 24 hrs by LC-MS/MS analysis. Set-up: route intravenous, dose 1 mg/kg, time <=24. The note with it: in vivo. The format is ADME, organism-based.
The nature of data set [6]: Half life in mouse at 2 mg/kg, iv or 10 mg/kg, po measured up to 24 hrs by LC-MS/MS analysis. The format is ADME, organism-based. The note with it: in vivo.
The next data set concerns the target T2, Adenosine receptor A3 (Homo sapiens, UniProt P0DMS8).
T2 sequence (P0DMS8 whole entry): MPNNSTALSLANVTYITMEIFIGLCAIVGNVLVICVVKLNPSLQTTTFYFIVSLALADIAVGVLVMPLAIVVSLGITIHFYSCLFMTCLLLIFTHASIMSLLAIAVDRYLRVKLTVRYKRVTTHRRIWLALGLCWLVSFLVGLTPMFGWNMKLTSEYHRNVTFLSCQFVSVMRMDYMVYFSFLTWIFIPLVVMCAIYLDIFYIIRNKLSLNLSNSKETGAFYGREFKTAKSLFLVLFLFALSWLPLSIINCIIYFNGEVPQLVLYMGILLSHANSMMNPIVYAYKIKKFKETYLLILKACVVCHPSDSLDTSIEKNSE
The data set is described as follows: Inhibition of FRET-labelled CA200645 binding to human adenosine A3 receptor expressed in CHO cells incubated for 2 hr by TR-FRET assay. The class given is cell-based. On the technique in general: Time-resolved FRET reads energy transfer from a long-lived donor to a nearby acceptor.

A further data set concerns the target T3, Adenosine receptor A1 (Homo sapiens, UniProt P30542).
T3 sequence (P30542 whole entry): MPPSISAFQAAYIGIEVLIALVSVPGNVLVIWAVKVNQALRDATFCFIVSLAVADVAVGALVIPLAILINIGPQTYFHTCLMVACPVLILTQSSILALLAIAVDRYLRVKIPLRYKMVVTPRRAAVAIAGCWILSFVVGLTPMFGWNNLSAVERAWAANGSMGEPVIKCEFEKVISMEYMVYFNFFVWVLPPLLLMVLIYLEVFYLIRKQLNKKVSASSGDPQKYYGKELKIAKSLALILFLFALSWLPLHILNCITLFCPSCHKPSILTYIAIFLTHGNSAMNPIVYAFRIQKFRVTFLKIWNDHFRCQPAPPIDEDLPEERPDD
As to the kind of experiment: Inhibition of FRET-labelled CA200645 binding to human adenosine A1 receptor expressed in CHO cells incubated for 2 hr by TR-FRET assay. The format is cell-based.

The target in data set [7] is T1, Adenosine receptor A2a. As to the kind of experiment: Antagonist activity at adenosine 2A receptor in human blood assessed as reversal of NECA/LPS-stimulated TNF-alpha release incubated for 5 hrs. The class given is tissue-based.
The target of data set [8] is T1, Adenosine receptor A2a. The data set is described as follows: Inhibition of FRET-labelled CA200645 binding to human adenosine 2A receptor expressed in CHO cells incubated for 2 hr by TR-FRET assay. The class given is cell-based.
In data set [9] the target is T1, Adenosine receptor A2a. As to the kind of experiment: Antagonist activity at human adenosine 2A receptor expressed in T-REx-CHO cells preincubated for 1 hr followed by NECA stimulation and measured after 30 mins by Eu-cAMP tracer based TR-FRET assay. The format is functional, cell-based. Particulars: filed as antagonist, time 1.5 hrs.
In data set [10] the target is Adenosine receptor A2a (Rattus norvegicus) (UniProt P30543). As to the kind of experiment: Antagonist activity at adenosine 2A receptor in rat PC12 cells assessed as reduction in NECA-induced cAMP level incubated for 30 mins by TR-FRET assay. The format is functional, cell-based. The note with it: PC-12, filed as antagonist. (In general: Cyclic AMP is a second messenger, typically raised through Gs and lowered through Gi signalling.)

Data set [11] addresses T1, Adenosine receptor A2a. As to the kind of experiment: Antagonist activity at adenosine 2A receptor in human peripheral blood lymphocytes assessed as reduction in NECA-stimulated CREB phosphorylation by flow cytometric analysis. The class given is functional, cell-based, PBL. On the technique in general: A flow cytometer gives signals particle by particle.
Data set [12] has as its target T1, Adenosine receptor A2a. As to the kind of experiment: Antagonist activity at human adenosine 2A receptor expressed in HEK293 cells assessed as reduction in cAMP production preincubated for 10 mins followed by 5 nM A2A agonist NECA addition and measured after 30 mins by EU-cAMP tracer based TR-FRET assay. The class given is functional, cell-based.
In data set [13] the target is T1, Adenosine receptor A2a. As to the kind of experiment: Antagonist activity at human adenosine 2A receptor expressed in HEK293 cells assessed as reduction in cAMP production preincubated for 10 mins followed by adenosine addition and measured after 30 mins by EU-cAMP tracer based TR-FRET assay. The format is functional, cell-based.
Data set [14] has as its target T1, Adenosine receptor A2a. As to the kind of experiment: Antagonist activity at human adenosine 2A receptor expressed in HEK293 cells assessed as reduction in cAMP production preincubated for 10 mins followed by 3 nM A2A agonist NECA addition and measured after 30 mins by EU-cAMP tracer based TR-FRET assay. The format is functional, cell-based.

T1 sequence (P29274 whole entry): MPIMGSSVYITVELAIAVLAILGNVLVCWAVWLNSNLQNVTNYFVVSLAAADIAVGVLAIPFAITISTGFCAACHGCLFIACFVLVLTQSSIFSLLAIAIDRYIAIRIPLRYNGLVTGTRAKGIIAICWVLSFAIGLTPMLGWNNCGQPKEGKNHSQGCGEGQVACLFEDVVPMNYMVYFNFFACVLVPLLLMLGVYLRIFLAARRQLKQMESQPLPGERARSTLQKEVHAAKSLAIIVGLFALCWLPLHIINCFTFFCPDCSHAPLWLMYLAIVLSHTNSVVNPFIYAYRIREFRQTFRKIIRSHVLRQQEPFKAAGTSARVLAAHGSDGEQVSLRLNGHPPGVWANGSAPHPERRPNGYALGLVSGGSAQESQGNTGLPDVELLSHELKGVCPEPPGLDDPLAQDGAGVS
Sequence of Adenosine receptor A2a (Rattus norvegicus) (P30543 whole entry): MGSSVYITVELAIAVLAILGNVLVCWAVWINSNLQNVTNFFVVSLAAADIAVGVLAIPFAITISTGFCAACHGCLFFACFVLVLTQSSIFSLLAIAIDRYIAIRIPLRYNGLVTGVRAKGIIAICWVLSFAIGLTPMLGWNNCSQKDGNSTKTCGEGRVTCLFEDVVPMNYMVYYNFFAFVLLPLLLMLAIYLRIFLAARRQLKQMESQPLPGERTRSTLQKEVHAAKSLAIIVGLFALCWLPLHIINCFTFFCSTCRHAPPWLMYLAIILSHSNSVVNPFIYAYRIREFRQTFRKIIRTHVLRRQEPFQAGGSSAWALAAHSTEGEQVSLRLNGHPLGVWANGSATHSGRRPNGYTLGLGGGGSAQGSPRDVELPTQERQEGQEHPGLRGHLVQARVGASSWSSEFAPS

Take `COCCOc1ccc(N2CCN(CCn3ncc4c3nc(N)n3nc(-c5ccco5)nc43)CC2)cc1`: the Ratio Ki in the data set filed under Homo sapiens [1], in the data set filed under Homo sapiens [2] and in the data set listed under Homo sapiens [3] was 1000 throughout.
For `COc1ncc(-c2ccccc2)c2ncc(NC(=O)N3CCC(C)(O)CC3)nc12`, the half-maximal inhibitory concentration (IC50) at Adenosine receptor A2a [4] is below 100 nM.
Molecule `COCCn1cc(C(=O)Nc2cnc3c(C4CCOCC4)ccc(OC)c3n2)cn1` registered a Cmax in data set [5] of 1220 ng/mL. For the same molecule, the half-life in data set [6] was 20.3 min.
For `Cc1cccnc1CNC(=O)c1c(N)nc(-c2ccco2)nc1OCCF`, the inhibition constant Ki at Adenosine receptor A3 amounted to 62 nM; at Adenosine receptor A1, 260 nM; at Adenosine receptor A2a [8] it was 1.3 nM. In addition, on Adenosine receptor A2a [7], the IC50 was above 200 nM.
For `COc1ncc(N2CCOCC2)c2nc(NC(=O)c3cnn(C)c3)[nH]c12`, the Cmax in [5] was determined as 733 ng/mL. Further, the half-life in data set [6] is 103 min.
At Adenosine receptor A2a [9], `COCc1cccc(Cn2cc(-c3cc(-c4ccco4)nc(N)n3)nn2)n1` displayed a Kb below 100 nM.
With `COc1ccc(-c2ccccc2)c2ncc(NC(=O)N3CCC(C)(O)CC3)nc12`, the IC50 at Adenosine receptor A2a [4] is below 100 nM. In data set [6], this molecule had a half-life above 120 min.
On to `Nc1nc(-c2ccccc2)c(-c2ccc(O)c(Cl)c2)n2ccnc12`, for which, in data set [10], the antagonist dissociation constant (Kb) was below 10000 nM.
`NC(=O)Cc1cc(N2CCN(CCn3c(=O)sc4c3nc(N)n3nc(-c5ccco5)nc43)CC2)c(F)cc1F`: the half-inhibitory concentration (IC50) was found to be 20 nM at Adenosine receptor A2a [11], 2 nM at Adenosine receptor A2a [12], 49 nM on Adenosine receptor A2a [13] and 0.5 nM on Adenosine receptor A2a [14].
Take `COc1ncc(N2CCOCC2)c2nc(NC(=O)N3CCC(C)(O)CC3)[nH]c12`: the peak level in data set [5] (Cmax) was 2650 ng/mL. Besides, the half-life in data set [6] is 50.3 min.
`COc1ccc(C2CCOCC2)c2ncc(NC(=O)N3CCC(C)(O)CC3)nc12`: in data set [6], the half-life is 55.2 min.
With `COc1ccc(-c2cnn(C)c2)c2nc(NC(=O)N3CC[C@@]4(CCCOC4)C3)[nH]c12`, the Cmax in data set [5] came to 1440 ng/mL. The same molecule showed a half-life in [6] of 66.6 min.
In turn, `COCCn1cc(C(=O)Nc2nc3c(OC)ncc(N4CCOCC4)c3s2)cn1` returned a Cmax in data set [5] of 1390 ng/mL. At Adenosine receptor A2a [4], the half-maximal inhibitory concentration (IC50) is below 10 nM. In data set [6], this molecule gave a half-life of 49 min.
